Test results reported in patent US20250059187A1, “COVALENTLY BINDING INHIBITORS OF G12S, G12D AND/OR G12E MUTANTS OF K-RAS GTPASE” (The Regents of the University of California, priority 2021, published 2025).

What was measured:
K-Ras(G12S) = K-Ras(G12S) (Homo sapiens, UniProt P01116, G12S); assay: Covalent modification of recombinant K-Ras(G12S) by whole-protein mass spectrometry; type: binding; parameters: human K-Ras (G12S, aa 1-169); 6xHis tag + TEV cleavage site (N, cleaved yes); made in house; host or cells: E. coli BL21(DE3); details: 23° C.; for covalent reaction with K-Ras(G12S)·GDP: 10 μM compound; for % covalent modification of K-Ras G12S: 24-h incubation, 100 μM compound, pH 7.5
Description: (§1) Test compounds were prepared as 100× stock solutions in DMSO. K-Ras proteins were diluted with SEC Buffer (20 mM HEPES 7.5, 150 mM NaCl, 1 mM MgCl2) to 400 nM or 1 μM. In a typical reaction, 0.5 μL 100× compound stock was mixed with 50 μL diluted K-Ras protein, and the resulting mixture was incubated for the desired amount of time. The extent of modification was assessed by electrospray mass spectrometry using a Waters Xevo G2-XS system equipped with an Acquity UPLC BEH C4 1.7 μm column. […] For kinetic measurements, a 2× compound solution was first prepared in SEC Buffer, which was then mixed with 400 nM K-Ras(G12S) protein at 1:1 (v/v) ratio. Injection time stamps were used to calculate elapsed time.
as §1, with “K-Ras(G12D)” for “K-Ras(G12S)”

wild type K-Ras [1] = target: T1, wild type K-Ras (Homo sapiens, UniProt P01116); assay: Covalent modification of recombinant wild-type K-Ras by whole-protein mass spectrometry; type: binding; details: 23° C.; for % covalent modification of wild type K-Ras: 24-h incubation, 100 μM compound, pH 7.5
T1 construct: human K-Ras (wildtype, aa 1-169); 6xHis tag + TEV cleavage site (N, cleaved yes); made in house; host or cells: E. coli BL21(DE3)
Description: (§2) Test compounds were prepared as 100× stock solutions in DMSO. K-Ras proteins were diluted with SEC Buffer (20 mM HEPES 7.5, 150 mM NaCl, 1 mM MgCl2) to 400 nM or 1 μM. In a typical reaction, 0.5 μL 100× compound stock was mixed with 50 μL diluted K-Ras protein, and the resulting mixture was incubated for the desired amount of time. The extent of modification was assessed by electrospray mass spectrometry using a Waters Xevo G2-XS system equipped with an Acquity UPLC BEH C4 1.7 μm column. The mobile phase was a linear gradient of 5-95% acetonitrile/water+0.05% formic acid. For kinetic measurements, a 2× compound solution was first prepared in SEC Buffer, which was then mixed with 400 nM K-Ras(G12S) protein at 1:1 (v/v) ratio. Injection time stamps were used to calculate elapsed time.
as §2, with “K-Ras(G12D)” for “K-Ras(G12S)”

wild type K-Ras [2] = target: T1, wild type K-Ras; assay: Covalent modification of test protein after incubation with compound; type: binding; details: 24-h incubation with 100 μM compound at 23° C. at pH 7.5
K-Ras G12D [3] = target: T2, K-Ras G12D (Homo sapiens, UniProt P01116, G12D); assay: as above; type: binding; details: 24-h incubation with 100 μM compound at 23° C. at pH 7.5
T2 construct: human K-Ras (G12D, aa 1-169); 6xHis tag + TEV cleavage site (N, cleaved yes); made in house; host or cells: E. coli BL21(DE3)

K-Ras G12E = target: T3, K-Ras G12E (Homo sapiens, UniProt P01116, G12E); assay: as above; type: binding; details: 24-h incubation with 100 μM compound at 23° C. at pH 7.5
T3 construct: human K-Ras (G12E, aa 1-169); 6xHis tag + TEV cleavage site (N, cleaved yes); made in house; host or cells: E. coli BL21(DE3)

K-Ras G12D [4] = target: T2, K-Ras G12D; assay: Differential scanning fluorimetry of K-Ras(G12D) and its covalent adducts; type: binding
Description: The protein of interest was diluted with SEC Buffer [20 mM HEPES 7.5, 150 mM NaCl, 1 mM MgCl2] to 8 μM. This solution was dispensed into wells of a white 96-well PCR plate in triplicate (25 μL/well). Fluorescence was measured at 0.5-° C. temperature intervals every 30 s from 25° C. to 95° C. on a Bio-Rad CFX96 qPCR system using the FRET setting. Each data set was normalized to the highest fluorescence and the normalized fluorescence reading was plotted against temperature in GraphPad Prism 8.0. Tm values were determined as the temperature(s) corresponding to the maximum(ma) of the first derivative of the curve.

[5] = tested on: A549 cells (homozygous KRAS p.G12S mutation); assay: Immunoblot and Raf-RBD pulldown in A549 cells; type: cell-based; details: 10 μM, 2 h
Description: Cells were passed for at least two generations after cryorecovery before they were used for assays. All cell lines were tested mycoplasma negative using MycoAlert™ Mycoplasma Detection Kit (Lonza). When indicated, cells were treated with drugs at 40-60% confluency at a final DMSO concentration of 1%. At the end of treatment period, cells were placed on ice. Unless otherwise indicated, adherent cells were washed once with ice-cold PBS (1 mL), scraped with a spatula, and pelleted by centrifugation (500×g, 5 min). Suspension cells were pelleted by centrifugation (500×g, 5 min), washed with 1 mL ice-cold PBS, and pelleted again. Cells were lysed in RIPA buffer supplemented with protease and phosphatase inhibitors (cOmplete and phosSTOP, Roche) on ice for 10 min. For RBD pulldown experiments, cells were lysed in Co-IP Lysis Buffer in lieu of RIPA buffer. Lysates were clarified by high-speed centrifugation (19,000×g, 10 min). Concentrations of lysates were determined with protein BCA assay (Thermo Fisher) and adjusted to 2 mg/mL with additional RIPA buffer (or Co-IP Lysis Buffer). Samples were mixed with 5×SDS Loading Dye and heated at 95° C. for 5 min.
Ras·GTP pulldown was performed with GST-RBD agarose beads (Cytoskeleton, 10 μL, 30 μg loaded GST-RBD). 50 μL lysate (2 mg/mL) was mixed with 10 μL beads, and the suspension was incubated at 4° C. for 1 h with constant end-to-end rotation. The beads were settled by centrifugation (500×g, 5 min) and the supernatant was carefully removed. The beads were washed with 2×500 μL ice-cold Co-IP wash buffer. Bound protein was eluted with 10 μL 2×SDS Loading Buffer.
Membranes were blocked in 5% BSA-TBST for 1 h at 23° C. […] After washing the membrane three times with TBST (5 min each wash), secondary antibodies (goat anti-rabbit IgG-IRDye 800 and goat anti-mouse IgG-IRDye 680, Li-COR) were added as solutions in 5% skim milk-TBST at the dilutions recommended by the manufacturer. Secondary antibody binding was allowed to proceed for 1 h at 23° C. The membrane was washed three times with TBST (5 min each wash) and imaged on a Li-COR Odyssey fluorescence imager.

[6] = Stability of substituted β-lactones in PBS 7.4 at 23° C.; type: physicochemical; details: PBS, pH 7.4, read-out: half-life (hydrolysis) (converted)
K-Ras G12D [7] = target: T2, K-Ras G12D; assay: Covalent modification of recombinant K-Ras(G12D) by whole-protein mass spectrometry; type: binding
Description: as §2, with “K-Ras(G12D)” for “K-Ras(G12S)”

covalent reaction with K-Ras(G12S)·GDP (K-Ras(G12S)) | % covalent modification of K-Ras G12S (K-Ras(G12S)) [%] | % covalent modification of wild type K-Ras (wild type K-Ras [1]) [%] | % covalent modification of wild type K-Ras (wild type K-Ras [2]) [%] | % covalent modification of K-Ras G12D (K-Ras G12D [3]) [%] | % covalent modification of K-Ras G12E (K-Ras G12E) [%] | thermal stabilization of K-Ras(G12D)·GDP (K-Ras G12D [4]; GDP state) | thermal stabilization of K-Ras(G12D)·GppNHp (K-Ras G12D [4]; GppNHp state) | Compound | covalent adducts with wild-type K-Ras protein (wild type K-Ras [1]; 10 μM compound, 4 μM protein) | effects on phospho-Akt, phospho-Erk and Ras·GTP levels [5] | half-life [6] [min] | reactivity with K-Ras(G12D)·GDP (K-Ras G12D [7])
did not yield any covalent adduct | 23.0 | 0 | 0 | 6.0 | 7.0 | – | – | CN1CCC[C@H]1COc1nc2c(c(N3CCC4OC(=O)C4C3)n1)CCN(c1cccc3cccc(Cl)c13)C2 (stereo partly drawn) [2′] | neither of these compounds formed covalent adducts | – | – | –
– | 100 | 7.5 | 7.5 | 6.9 | 8.6 | – | – | CN1CCC[C@@H]1COc1nc2c(c(N3CC[C@H]4C(=O)O[C@H]4C3)n1)CCN(c1cccc3cccc(Cl)c13)C2 [Compound 12-077] | – | – | – | –
– | 100 | 0 | 0 | 100 | 38.0 | stabilized K-Ras(G12D)·GDP | stabilized K-Ras(G12D)·GppNHp | N#CC[C@H]1CN(c2nc(OCC34CCCN3CCC4)nc3c(F)c(-c4cccc5cccc(Cl)c45)ncc23)CCN1C(=O)C1CC(=O)O1 (stereo partly drawn) [Compound 14-005] | – | – | – | –
enhanced reaction | – | – | – | – | – | – | – | CN1CCC[C@H]1COc1nc2c(c(N3CC[C@H]4C(=O)O[C@H]4C3)n1)CCN(c1cccc3cccc(Cl)c13)C2 [3′] | – | neither adagrasib nor 3′ had any observable effects on these markers | – | –
enhanced reaction | 100 | 0 | 0 | 0 | 0 | – | – | O=C1O[C@H]2CN(c3nc(OCC45CCCN4CCC5)nc4c3CCN(c3cccc5cccc(Cl)c35)C4)CC[C@@H]12 [4′] | – | decreased the level of Ras·GTP | – | –
– | 0 | 0 | 0 | 0 | 0 | – | – | O=C1O[C@@H]2CCN(c3ncnc4c(F)c(-c5ccccc5F)c(Cl)cc34)C[C@H]12 [Compound 04-005] | – | – | – | –
– | 0 | 8.0 | 8.0 | 2.4 | 7.4 | – | – | CC1(c2cc(NCC(=O)N3CC[C@H]4OC(=O)[C@H]4C3)c(O)cc2Cl)CC1 [Compound 06-092] | – | – | – | –
– | – | – | – | – | – | – | – | C[C@@H]1C(=O)O[C@H]1C(=O)N1[C@@H]2CC[C@H]1CN(c1nc(OCC34CCCN3CCC4)nc3c(F)c(-c4cccc5cccc(Cl)c45)ncc13)C2 [Compound 3] | – | – | 150 | –
– | 92.8 | 85.8 | 85.8 | 87.8 | 75.1 | – | – | O=C1OCC12CCN(c1nc(OCC34CCCN3CCC4)nc3c1CCN(c1cccc4cccc(Cl)c14)C3)CC2 [Compound 13-018] | – | – | – | –
– | – | – | – | – | – | – | – | O=C1C[C@H](C(=O)N2[C@@H]3CC[C@H]2CN(c2nc(OCC45CCCN4CCC5)nc4c(F)c(-c5cccc6cccc(Cl)c56)ncc24)C3)O1 [Compound 2] | – | – | 102 | the R enantiomer was more reactive toward K-Ras(G12D)·GDP
– | 0 | 4.8 | 4.8 | 2.4 | 5.3 | – | – | CC1(c2cc(NCC(=O)N3CC[C@H]4C(=O)O[C@H]4C3)c(O)cc2Cl)CC1 [Compound 06-093] | – | – | – | –
